Test results reported in patent US5679828A (priority 1995, dated 1997).

Experiments:
[1] = tested on: HIV-induced membrane fusion; test: Inhibition of HIV-induced membrane fusion / syncytia formation reported in the literature; type: cell-based; settings: versus compounds 2-5 or 8-10; CEM4 here, H9 in the literature
[2] = tested on: HIV-1; settings: Table 1 footnote h: data from reference 8; cited from earlier work
[3] = tested on: HIV-1 RT; settings: Table 1 footnote h: data from reference 8; cited from earlier work
[4] = tested on: HIV-induced membrane fusion; settings: cited from earlier work

C=C(C)[C@@H]1CC[C@]2(C(=O)NCCCCCCCC(=O)N[C@@H](CC(C)C)[C@@H](O)CC(=O)O)CC[C@]3(C)[C@H](CC[C@@H]4[C@@]5(C)CC[C@H](O)C(C)(C)[C@@H]5CC[C@]43C)[C@@H]12 [Compound 12]
potency in inhibiting syncytia formation relative to compounds 2-5 or 8-10 [1]: approximately ten
EC50 [2]: 30 nM
T.I. [2]: > 90
HIV-RT Assay IC50 [3]: No Inhibition
Fusion Assay IC100 ([4]; Table 1 footnote h: data from reference 8): 3 µg/mL
inhibit syncytia formation ([4]; reported in the literature, H9 cell line): 3 µg/mL
